Results reported in patent publication US6509348B1, “Combination of an ADP-receptor blocking antiplatelet drug and a thromboxane A2 receptor antagonist and a method for inhibiting thrombus formation employing such combination” (Bristol-Myers Squibb Company, priority 1998, dated 2003).
“Also recorded” adds a separate entry of the source. Read-outs that look alike come from different tables or passages of the source.

Assays:
[1] = system: carotid artery thrombosis; details: clopidogrel 10 mg/kg
[2] = system: vessel injury-induced venous thrombosis; assay: FeCl2 vessel injury-induced vena cava thrombosis in rats; type: in vivo, rat
Experimental: Thrombosis Procedure. Male Sprague Dawley rats (350-450 g) were anesthetized with sodium pentobarbital (50 mg/kg i.p.). A jugular vein was cannulated for drug infusion or anesthetic supplementation, and the trachea was intubated to ensure airway patency. The vena cava was isolated by a midline abdominal incision and cleared of connective tissue. A fiberoptic probe (model P-433-10, 0.8 mm tip diameter) was placed on the dorsal surface of the vena cava distal to the renal veins and attached to a laser doppler blood perfusion monitor (model BPM 430-2, Vasamedics, St. Paul, Minn.). When baseline flow had stabilized, a 2 mm×5 mm strip of filter paper was saturated in 15% FeCl2 and placed on the vena cava downstream from the flow probe for 1 min. The vena cava was dissected free 60 min after filter paper application and opened lengthwise. The thrombus was removed to determine wet and dry thrombus weights on a Sartorius R-160P balance (Brinkmann Instruments Inc., Westbury, N.Y.). Blood flow was monitored on an R-611 physiological recorder (Sensor Medics, Anaheim, Calif.). Total blood flow was calculated by planimetry and normalized as percent of baseline flow (0 min=100%) over 60 min.
(§1) Drug treatments. There were 3 separate studies. In the first study rats were dosed once daily for 3 days with an oral gavage of either saline (n=6) or clopidogrel 3 (n=5), 10 (n=5), 20 (n=4) mg/kg). One hour after the last dose, rats were anethetized for the thrombosis protocol or blood was obtained for ex vivo testing of platelet function and whole blood coagulation. In the second study a continuous i.v. infusion of either saline or ifetroban (150 μg/kg/min) was administered starting 15 min before FeCl2-induced injury of the vena cava. In the third study, rats were treated with saline or clopidogrel (2 mg/kg per day for 3 days) and administered either saline or ifetroban (150 μg/kg/min) starting 15 min before FeCl2 application.

[3] = system: ADP-induced platelet aggregation; assay: animal or person
Experimental: (§2) Ex Vivo Platelet Function and Coagulation Testing. Male Sprague Dawley rats (350-450 g) were anesthetized with sodium pentobarbital (50 mg/kg i.p.) The vena cava was isolated by a midline abdominal incision and 5 to 8 ml of blood was withdrawn into a 1/10th volume of 3.8% Na citrate. A portion of each blood sample was centrifuged for 3 sec in a Microcentrifuge E (Beckman, Palo Alto, Calif., USA) to prepare platelet rich plasma (PRP) and for 3 min to prepare platelet poor plasma (PPP). The PRP was adjusted to a count of ˜450×10^3 platelets per […] by adding PPP.
Platelet aggregation responses of PRP to ADP (1,3 and 10 μM; Chrono-Log Corp., Havertown, Pa., USA) were determined using the photometric technique described for a model 540 aggregometer (Chrono-Log Corp.).
as §1

[4] = system: stasis-induced vena cava thrombosis; assay: Stasis-induced (uncomplicated) vena cava thrombosis; type: in vivo, rat
whole blood coagulation = details: clopidogrel orally once daily for 3 days
Experimental: as §2, §1

[5] = system: stasis-induced vena cava thrombosis; details: cited from earlier work
[6] = system: vessel injury-induced venous thrombosis; details: cited from earlier work; for activity in vessel injury-induced venous thrombosis model: aspirin, previous experiments
[7] = molecular target: T1, rat platelet thromboxane A2 receptors (Rattus norvegicus, UniProt P34978); details: dose used (150 μg/kg/min); Schumacher et al. 1993; cited from earlier work
T1 construct: rat platelet thromboxane A2 receptors; host or cells: rat platelets (endogenous)
T1 sequence (P34978 1-341): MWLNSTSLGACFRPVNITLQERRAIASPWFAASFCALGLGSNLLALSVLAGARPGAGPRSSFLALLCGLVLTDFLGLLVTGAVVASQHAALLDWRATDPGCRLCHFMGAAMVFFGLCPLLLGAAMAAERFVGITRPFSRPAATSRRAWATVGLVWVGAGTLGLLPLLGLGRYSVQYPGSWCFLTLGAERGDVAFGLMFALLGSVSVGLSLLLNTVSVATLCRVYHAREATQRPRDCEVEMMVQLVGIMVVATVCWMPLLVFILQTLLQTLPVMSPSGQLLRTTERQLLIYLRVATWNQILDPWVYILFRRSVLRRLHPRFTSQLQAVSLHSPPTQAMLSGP

## COC(=O)[C@H](c1ccccc1Cl)N1CCc2sccc2C1 [clopidogrel, methyl (4)-(S)-α-(o-chlorophenyl)-6,7-dihydrothieno[3,2-c]pyridine-5-acetate]
[1]
  antithrombotic activity: good activity
[2]; clopidogrel 2 mg/kg per day for 3 days
  effect on thrombus formation: not sufficient to inhibit thrombus formation; also recorded: no effect
[2]; clopidogrel 3 mg/kg orally once daily for 3 days
  decrease in thrombus weight: 46%
[2]; clopidogrel 10 mg/kg
  antithrombotic activity: good activity
[2]; clopidogrel 10 mg/kg orally once daily for 3 days
  decrease in thrombus weight: 72%
[2]; clopidogrel 20 mg/kg orally once daily for 3 days
  decrease in thrombus weight: 84%
[3]; Rattus norvegicus, Platelet, 72 h, read-out: inhibition of ADP-induced aggregation
  inhibition at 20 mg/kg: 86%
[3]; Rattus norvegicus, Platelet, 72 h, read-out: inhibition of ex vivo platelet aggregation
  inhibition at 10 mg/kg: 50%
[3]; clopidogrel 20 mg/kg daily for 3 days
  platelet shape change response to ADP: unaffected
[4]; clopidogrel 10 mg/kg
  antithrombotic activity: good activity
[4]; dose-dependent comparison of three rat models
  antithrombotic efficacy compared across the thrombosis models: least effective
Whole blood coagulation
  ex vivo whole blood coagulation tests: unaffected

## CC(=O)CC(c1ccccc1)c1c(O)c2ccccc2oc1=O (stereo not drawn) [warfarin]
[5]; at dose giving ≧75% inhibition of stasis-induced thrombosis
  PT ratio (INR): 2.2
[6]; at higher dose needed for comparable inhibition of vessel injury-induced venous thrombosis
  INR: 9.5

## CC(=O)Oc1ccccc1C(=O)O [aspirin]
[5]; aspirin
  activity in uncomplicated venous thrombosis model: inactive
[6]
  activity in vessel injury-induced venous thrombosis model: failure; also recorded: failed to inhibit thrombosis
[6]; listed as Aspirin
  activity in vessel injury-induced venous thrombosis model: inactive

## CCCCCNC(=O)c1coc(C2C3CCC(O3)C2Cc2ccccc2CCC(=O)O)n1 (stereo not drawn) [ifetroban, [1S-(1α,2α,3α,4α)]-2-[[3-[4-[(pentylamino)carbonyl]-2-oxazolyl]-7-oxabicyclo[2.2.1]hept-2-yl]methyl]benzenepropanoic acid]
[2]; ifetroban alone, 150 μg/kg/min i.v. infusion from 15 min before FeCl2
  effect on thrombus formation: inactive; also recorded: no significant effect; also recorded: failure; also recorded: not effective
[2]; ifetroban alone, 150 μg/kg/min i.v. infusion from 15 min before FeCl2, listed as Ifetroban
  effect on thrombus formation: failed to inhibit thrombosis
[7]
  block of rat platelet thromboxane A2 receptors: ≥ 99%
[4]; ifetroban alone
  efficacy in uncomplicated venous thrombosis model: effective; also recorded: intermediate efficacy
